Assay results: article PMC7835894 (Molecules, 2021)

Key:
Assay type in all cases: cell-based, human
[1] = test system: HT-29; assay: MTT antiproliferation assay; conditions: for SI (selectivity index): HT-29, SI = IC50 (WI-38)/IC50 (cancer cell line); for IC50: Homo sapiens, HT-29, MTT, 24 h, mean ± SEM
How it was run: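 Each line was seeded at 20,000 cells/well, adhered overnight, then treated 24 h in serum-free dilutions under reduced light, with 0.1% DMSO as negative control. MTT (0.5 mg/mL final) was added for 4 h at 37 °C, formazan dissolved in DMSO and absorbance read at 540 nm. IC50 is the concentration giving 50% growth inhibition.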

[2] = test system: E-cadherin; assay: Gene expression analysis (qPCR) in Caco-2 cells; conditions: Caco-2, IC50, 24 h, relative to 0.1% DMSO control
Method: (§1) Sensitive cancer cell line (Caco-2) was used for gene expression analysis of different genes controlling differentiation, apoptosis, tumor resistance, aggressiveness, and metastasis. […] After incubation, cells were harvested, and the total RNA was purified using Favor-Prep^TM Blood/Cultured cell total RNA purification mini kit (Favorgen Biotech Corp., Ping-Tung, Taiwan). RNA was reverse transcribed into the first-strand cDNA using Revert Aid First Strand cDNA Synthesis Kit (Thermo Scientific, Waltham, MA, USA). HERA^PLUS SYBR® Green qPCR Kit (Willowfort, Nottingham, UK) was utilized in quantitative polymerase chain reactions (qPCR). Gene expression was analyzed and quantified using the 2ˆ^−ΔΔCT method.

[3] = test system: p53; assay: Gene expression analysis (qPCR) in Caco-2 cells; conditions: Caco-2, IC50, 24 h, relative to 0.1% DMSO control
Method: as §1

[4] = test system: Bax; assay: Gene expression analysis (qPCR) in Caco-2 cells; conditions: Caco-2, IC50, 24 h, relative to 0.1% DMSO control
Method: as §1

[5] = test system: RAR-β; assay: Gene expression analysis (qPCR) in Caco-2 cells; conditions: Caco-2, IC50, 24 h, relative to 0.1% DMSO control, normalized to GAPDH
Method: as §1

[6] = test system: Caspase-8 (Cas-8); assay: Gene expression analysis (qPCR) in Caco-2 cells; conditions: Caco-2, IC50, 24 h, relative to 0.1% DMSO control
Method: as §1

[7] = test system: RAI2; assay: Gene expression analysis (qPCR) in Caco-2 cells; conditions: Caco-2, IC50, 24 h, relative to 0.1% DMSO control
Method: as §1

[8] = test system: RAR-α; assay: Gene expression analysis (qPCR) in Caco-2 cells; conditions: Caco-2, IC50, 24 h, relative to 0.1% DMSO control, normalized to GAPDH
Method: as §1

[9] = test system: cytochrome-C (Cyt-C); assay: Gene expression analysis (qPCR) in Caco-2 cells; conditions: Caco-2, IC50, 24 h, relative to 0.1% DMSO control
Method: as §1

[10] = test system: p53; assay: Western blotting in Caco-2 cells; conditions: Caco-2, IC50 dose, 24 h, normalized to β-actin
Method: (§2) The expression of Bax, Bcl-2, Cyt-C, cleaved cas-3 and p53 proteins in Caco-2 cells was determined using Western blot procedure according to the methods mentioned previously. […] Then, cells were lysed in 150 µL pre-cold lysis buffer [Tris-Base “10 mM”, NaCl “100 mM”, Ethylene glycol bis (2-aminoethyl) tetraacetic acid (EGTA) “20 mM”, ethylenediaminetetraacetic acid (EDTA) “25 mM”, 1% (v/v) NP-40, and 1% (v/v) Triton X-100; pH 7.4] immediately supplemented with 1:450 protease and phosphatase inhibitors cocktail (Sigma-Aldrich). Caco-2 cells were immediately collected by cell scraper, sonicated, and centrifuged at 12,000 rpm for 15 min. Total proteins in the produced supernatant were determined colorimetrically using the Pierce™ 660 nm Assay (Thermo Scientific, Rockford, IL, USA). Equal amounts (30 µg) of protein were mixed with sodium dodecyl sulfate (SDS)-loading buffer containing Tris-HCl, dithiothreitol (DTT), SDS, glycerol, and Bromophenol blue. The protein samples were then denatured by boiling for 5 min, allowed to cool on ice for 10 min and separated by SDS-polyacrylamide gel electrophoresis (Cleaver Scientific Ltd., Rugby, Warwickshire, UK), and transferred onto Polyvinylidene Difluoride (PVDF) membranes for 30 min using Trans-Blot® SD semi-dry transfer cell (Biorad). Membranes were then blocked with 5% (w/v) blotting-grade dry milk (Biorad) in Tris-buffered saline-Tween-20 (TBS-T), washed and incubated with antibodies against Bax, Bcl-2, cleaved caspase-3 (1:100–1:2000, Cell Signaling Technology), cytochrome c (1:500, Santa Cruz Biotechnology), p53 (1:1500, Abcam) and β-actin (1:2500, Sigma-Aldrich) for 16–17 h at 4 °C in a humidified chamber. The blots were washed, incubated at RT with matched horseradish peroxidase (HRP)-linked secondary antibodies (Dako, Denmark) for 1.5 h, and the bands were visualized with chemiluminescence Western Lightning ECL (Perkin Elmer, Waltham, MA) for 1 min in Chemi-Doc imager (Biorad, Hercules, CA, USA) and finally analyzed with Bio-Rad Image Lab software with normalization to β-actin.

[11] = test system: Cyt-C; assay: Western blotting in Caco-2 cells; conditions: Caco-2, IC50 dose, 24 h, normalized to β-actin
Method: as §2

[12] = test system: Caco-2 cells; assay: Isobologram analysis of retinoid + 5-FU combinations (MTT); conditions: Caco-2, combination with 5-FU; for CI (combination index): CI < 1 is synergy
Text: This mathematical model allows the determination of CI (combination index) values based on the Equation (1):CI = d1/D1 + d2/D2 (1) where d1 and d2 are the doses of drug 1 and drug 2 that, when given in combination, produce a specific response. D1 and D2 are the doses of drug 1 and drug 2, that, when given individually, produce the same response. Also, CI < 1 is synergy, CI = 1 is additivity and CI > 1 is antagonism
DRI < 1 indicates unfavorable dose reduction and ineffective combination.

IC50 [1] [µM]	SMILES	SI (selectivity index) [1]	E-cadherin gene expression, fold change [2] [fold]	p53 gene expression, fold change [3]	Bax gene expression, fold change [4]	RAR-β gene expression, fold increase [5]	Cas-8 gene expression, fold change [6]	RAI2 gene expression, fold change [7] [fold]	RAR-α gene expression, fold increase [8]	Cyt-C gene expression, fold change [9] [fold]	p53 protein level [10]	Cyt-C protein level [11]	DRI (dose reduction index) [12]	CI (combination index) [12]
> 100	CC1(C)CCC(C)(C)c2cc(C#Cc3cccc(C(=O)O)c3)ccc21 [EC19, 3-(5,5,8,8-tetramethyl-5,6,7,8-tetrahydronaphthalen-2-ylethynyl) benzoic acid]	<1	54	1.2 fold	1.9 fold	131 fold	7.1 fold	4.4	2.6 fold	3.6	significantly increased	significantly increased	4.5 ± 0.6	0.46 ± 0.06
> 100	CC1(C)CCC(C)(C)c2cc(C#Cc3ccc(C(=O)O)cc3)ccc21 [EC23, 4-(5,5,8,8-tetramethyl-5,6,7,8-tetrahydronaphthalen-2-ylethynyl) benzoic acid]	<1	16.3	did not induce p53 upregulation	not able to induce any significant change	no effect	did not induce significant expression	1.6	no effect	2.8	–	–	7.5 ± 0.8	0.27 ± 0.03
